Measured values reported in US7635779B2, “Oxy substituted flavones as antihyperglycemic and antidyslipidemic agents” (Council of Scientific & Industrial Research, priority 2004, dated 2009).
Where two headings read alike, the source gives them in different places.

Assays:
[1] = test system: triton WR-1339 induced hyperlipidemic rats; assay: Triton model, antidyslipidemic activity; format: in vivo, rat; conditions: Rattus norvegicus, 100 mg/kg oral, plasma after 18 h
Method: Male Charles foster rats weighing 200-225 g were divided into control, hyperlipidemic and hyperlipidemic plus drug treated groups containing six animals in each group. Hyperlipidemia was induced by administration of triton WR-1339 (200 mg/kg i.p.). All animals were maintained on a special pellet diet and water ad libitum. Compounds and standard drug were macerated with 0.2% aqueous gum acacia suspension. The suspension was fed orally at the dose of 100 mg/kg simultaneously with triton in drug treated group. The animals of control group received the same amount of gum acacia by similar route of administration. At the end of the experiment, after 18 h, blood was withdrawn from retro orbital plexus and plasma was used for the assay of total cholesterol, phospholipid and triglycerides.
Cholesterol was estimated using the kit provided by Roche Diagnostics. Cholesterol esters are enzymatically hydrolyzed by cholesterol esterase (CE) to cholesterol and free fatty acids. Free cholesterol, including that originally present, is then oxidized by cholesterol oxidase (CO) to cholest-4-en-3-one and hydrogen peroxide. The hydrogen peroxide combines with hydroxy benzoic acid (HBA) and 4-aminoantipyrine (4AAA) in the presence of peroxidase (POD) to form a chromophore (quinoneimine dye), which may be quantitated at 500-505 nm. The intensity of red colour formed is directly proportional to the concentration of total cholesterol in the specimen and measured spectrophotometrically (Searcy, C. L. Diagnostic Biochemistry, 1969, McGraw Hill, New York; Ellefson, R. D.; Caraway, W. T. Fundamentals of clinical chemistry, 1976, Ed Tietz N W, 506-515.)
Triglycerides were estimated using the kit provided by Roche Diagnostics. Lipoprotein lipase hydrolyses triglycerides to yield glycerol and fatty acids. Glycerol kinase converts glycerol to glycerol-3-phosphate, which is oxidized by glycerol phosphate oxidase to dihydroxy acetone phosphate and hydrogen peroxide. In the presence of peroxidase, hydrogen peroxide oxidatively couples with 4-aminoantipyrine and 4-chloro phenol to produce red quinonimine dye. The intensity of red colour formed is directly proportional to the concentration of triglycerides in the specimen and is measured by photometrically (Wahlefeld, A. W.; Bergmeyer, H. U. Ed. Methods of enzymatic analysis, 2nd English edition, New York, N.Y., Academic press inc, 1831-1840.).
Serum (0.2 mL) and perchloric acid (1.0 mL) was digested at 180° C. for 1-1.5 h till the solution became colorless. The liberated inorganic phosphate (Pi) was measured by the method of Fiske and Subbarow (Fiske, C. H.; Subbarow, V. J. Biol. Chem. 1925, 66, 375.). 1 mL of 2.5% ammonium molybdate (prepared in 5 N sulphuric acid) and 0.5 mL reducing agent (4-amino naphthol sulphonic acid, 0.2%), sodium metabisulphite (2.4% w/v in distilled water) was added to the above tubes and mixed well. The reaction mixture was […] with 2.5 mL of triple distilled water and kept at 60° C. in water bath for 20 min. For standard, an appropriate amount of potassium dihydrogen phosphate dissolved in triple distilled water containing 2-10 μg phosphorous (Pi) was run simultaneously with the experiment tubes. The optical density of the blue colour was recorded at 620 nm against reagent blank. The values of Pi were converted into phospholipid by multiplying with 25 (a constant calibrated from Pi value of lecithin).

[2] = test system: sucrose loaded rat; assay: Sucrose loaded rat model (SLM), antihyperglycemic activity; format: in vivo; conditions: for inhibition in vivo at 100 mg/kg: Rattus norvegicus, po, 2 h, read-out: % Fall in blood glucose levels, SLM; for % Fall in blood glucose levels, SLM: 100 mg/kg oral, AUC vs control
Method: Male albino rats of Charles Foster/Wistar strain of average body weight 160±20 g were selected for this study. The blood glucose level of each animal was checked by glucometer using glucostrips (Boehringer Mannheim) after 16 h starvation. Animals showing blood glucose levels between 3.33 to 4.44 mM (60 to 80 mg/dl) were divided into groups of five to six animals in each. Animals of experimental group were administered suspension of the desired synthetic compound orally (made in 1.0% gum acacia) at a dose of 100-mg/kg-body weight. Animals of control group were given an equal amount of 1.0% gum acacia. A sucrose load (10.0 g/kg) was given to each animal orally exactly after 30 min post administration of the test sample/vehicle. Blood glucose profile of each rat was again determined at 30, 60, 90 and 120 min post administration of sucrose by glucometer. Food but not water was withheld from the cages during the course of experimentation. Quantitative glucose tolerance of each animal was calculated by Area Under Curve (AUC) method (Prism Software). Comparing the AUC of experimental and control groups determined the percentage antihyperglycemic activity. Statistical comparison was made by Dunnett's test.

[3] = test system: streptozotocin-induced diabetic rats; assay: Sucrose-challenged streptozotocin-induced diabetic rats (STZ-S); format: in vivo, rat; conditions: 100 mg/kg oral
Method: Male albino rats of Sprague Dawley strain of body weight 160+20 g were selected for this study. Streptozotocin (Sigma, USA) was dissolved in 100 mM citrate buffer pH 4.5 and calculated amount of the fresh solution was injected to overnight fasted rats (45 mg/kg) intraperitoneally. Blood glucose level was checked 48 h later by glucostrips and animals showing blood glucose values between 144 to 270 mg/dl (8 to 15 mM) were included in the experiment and termed diabetic. The diabetic animals were divided into groups consisting of five to six animals in each group. Animals of experimental groups were administered suspension of the desired test samples orally (made in 1.0% gum acacia) at a dose of 100-mg/kg-body weight. Animals of control group were given an equal amount of 1.0% gum acacia. A sucrose load of 2.5-g/kg body weight was given after 30 minutes of compound administration. After 30 minutes of post sucrose load blood glucose level was again checked by glucostrips at 30, 60, 90, 120, 180, 240, 300 min and at 24 h, respectively. Animals not found diabetic after 24 hours post treatment of the test sample were not considered and omitted from the calculations and termed as non-responders. […] Food but not water was withheld from the cages during the experimentation. Comparing the AUC of experimental and control groups determined the percent antihyperglycemic activity. Statistical comparison between groups was made by Student's ‘t’ test.
As depicted in the FIGURE, a dose response curve of 34 was obtained by administering different doses of test compound to streptozotocin-induced diabetic rats (Table 6). […]

[4] = phospholipid, read-out: % Fall in lipid levels (Triton model) PL
[5] = total cholesterol, read-out: % Fall in lipid levels (Triton model) TC
[6] = triglycerides, read-out: % Fall in lipid levels (Triton model) TG

melting point	SMILES	inhibition in vivo at 100 mg/kg [1, 4]	inhibition in vivo at 100 mg/kg [1, 5]	inhibition in vivo at 100 mg/kg [1, 6]	inhibition in vivo at 100 mg/kg [2]	% Fall in blood glucose levels, STZ-S 5 h [3]	% Fall in blood glucose levels, STZ-S 24 h [3]	% Fall in blood glucose levels, SLM [2]
168 to 170 °C	O=c1cc(-c2cc(OCc3ccccc3)cc(OCc3ccccc3)c2)oc2cc(OCC(O)CN3CCN(c4ccccc4)CC3)ccc12 (stereo not shown) [Compound 36, 3′,5′-Dibenzyloxy-7-[2-hydroxy-3-(4-phenylpiperazin-1-yl)-propoxy]-flavone]	21%	24%	17%	34.6%	NIL	2.46%	–
156 to 157 °C	CC(C)(C)NCC(O)COc1ccc2oc(-c3ccc(OCc4ccccc4)c(OCc4ccccc4)c3)cc(=O)c2c1 (stereo not shown) [Compound 39, 6-(3-tert-Butylamino-2-hydroxy-propoxy)-3′,4′-dibenzyloxy-flavone]	12%	21%	17%	21.8%	14.9%	0.36%	–
191 to 193 °C	COc1ccc(-c2cc(=O)c3ccc(OCC(O)CN4CCN(c5ccccc5)CC4)cc3o2)cc1OC (stereo not shown) [Compound 47, 3′,4′-Dimethoxy-7-[2-hydroxy-3-(4-phenylpiperazin-1-yl)-propoxy]-flavone]	22%	23%	19%	5.45%	–	–	–

The next lines start with the compound.

SMILES	melting point	inhibition in vivo at 100 mg/kg [1, 4]	inhibition in vivo at 100 mg/kg [1, 5]	inhibition in vivo at 100 mg/kg [1, 6]	inhibition in vivo at 100 mg/kg [2]	% Fall in blood glucose levels, STZ-S 5 h [3]	% Fall in blood glucose levels, STZ-S 24 h [3]	% Fall in blood glucose levels, SLM [2]
COc1cc(-c2cc(=O)c3ccc(OCC(O)CNC(C)C)cc3o2)cc(OC)c1OC (stereo not shown) [Compound 41, 7-(2-Hydroxy-3-iso-propylamino-propoxy)-3′,4′,5′-trimethoxy-flavone]	106 to 107 °C	16%	18%	19%	20.7%	17.4%	19.1%	–
COc1cc(-c2cc(=O)c3ccc(OCC(O)CNC(C)(C)C)cc3o2)cc(OC)c1OC (stereo not shown) [Compound 40, 7-(3-tert-Butylamino-2-hydroxy-propoxy)-3′,4′,5′-trimethoxy-flavone]	119 to 120 °C	26%	24%	28%	–	–	–	NIL
COc1cc(OC)cc(-c2cc(=O)c3ccc(OCC(O)CN4CCN(c5ccccc5)CC4)cc3o2)c1 (stereo not shown) [Compound 45, 3′,5′-Dimethoxy-7-[2-hydroxy-3-(4-phenylpiperazin-1-yl)-propoxy]-flavone]	195 to 196 °C	20%	30%	31%	–	–	–	NIL
CC(C)(C)NCC(O)COc1ccc2c(=O)cc(-c3cc(O)cc(O)c3)oc2c1 (stereo not shown) [Compound 48, 7-(3-tert-Butylamino-2-hydroxy-propoxy)-3′,5′-dihydroxy-flavone]	153 °C (dec.)	4%	17%	16%	19.1%	NIL	NIL	–
